{"source": "paper PMC4534092", "about": "“Novel Penicillin Analogues as Potential Antimicrobial Agents; Design, Synthesis and Docking Studies” (PLoS ONE, 2015)", "biological_target": "MurC (UDP-N-acetylmuramic acid:L-alanine ligase) (Escherichia coli, UniProt P17952)", "sequence (P17952 whole entry)": "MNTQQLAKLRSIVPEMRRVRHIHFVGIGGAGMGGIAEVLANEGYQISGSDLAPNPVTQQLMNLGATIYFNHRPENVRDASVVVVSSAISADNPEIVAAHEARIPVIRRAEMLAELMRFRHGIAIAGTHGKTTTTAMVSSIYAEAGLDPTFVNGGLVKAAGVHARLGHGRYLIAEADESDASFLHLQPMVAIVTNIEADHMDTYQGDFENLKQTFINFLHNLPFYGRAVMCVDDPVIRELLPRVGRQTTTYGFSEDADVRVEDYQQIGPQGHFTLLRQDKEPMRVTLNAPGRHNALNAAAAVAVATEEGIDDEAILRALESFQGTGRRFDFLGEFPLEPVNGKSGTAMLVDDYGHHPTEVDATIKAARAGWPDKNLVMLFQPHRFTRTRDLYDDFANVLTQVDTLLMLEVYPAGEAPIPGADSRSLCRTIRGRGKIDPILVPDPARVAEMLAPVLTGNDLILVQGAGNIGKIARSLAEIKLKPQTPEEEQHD", "test": "Malachite green phosphate detection enzyme assay with […] MurC", "assay_type": "biochemical", "note": "pIC50: −log10 of the molar value.", "data": [{"compound": "COc1ccc2cc(C(C)C(=O)NC3C(=O)N4C3SC(C)(C)C4C(=O)O)ccc2c1", "note": "[4e, (2S,5R,6S)-6-(3'-(11'-methoxynaphthalen-5'-yl)propanamido)-3,3-dimethyl-7-oxo-4-thia-1-azabicyclo[3.2.0]heptane-2-carboxylic acid]", "values": [{"measurement": "pIC50", "result": 4.90}]}, {"compound": "Nc1ncnc2c1ncn2[C@@H]1O[C@H](COP(=O)(O)OP(=O)(O)CP(=O)(O)O)[C@@H](O)[C@H]1O", "note": "[AMP-PCP]", "values": [{"measurement": "pIC50", "result": 4.77}]}]}
